The values below are quoted from earlier work in patent publication US20230320987A1, “LIPID NANOPARTICLES AND LIPOSOMES” (National Health Research Institutes, priority 2022, published 2023).

For series [1] the following is noted: after subcutaneous injection into a human body.

Regarding `Cc1cc(NC2CCN(C(=O)CCNCC(=O)O)CC2)nc(NCc2nc(CCCNCCCNC3CCCCC3)co2)n1` [CX-1, (3-{4-[2-({4-[3-(3-cyclohexylaminopropylamino)propyl]oxazol-2-ylmethyl}amino)-6-methyl-pyrimidin-4-ylamino]piperidin-1-yl}-3-oxopropylamino)acetic acid], the water solubility entry is reported as “high”. Also, the half-life entry in series [1] is recorded as “less than one”.
